Results published in US20050079526A1, “Methods and apparatuses for characterizing refolding and aggregation of biological molecules” (Affinium Pharmaceuticals, Inc., priority 2002, published 2005).

Experiments:
the protein = assay: extent of unfolding of a protein measured by fluorescence versus time after temperature jump to 55° C. (rate of unfolding ku); assay type: binding; conditions: fluorescence versus time at 55° C.; 5% ethanol; 10% glycerol; AND^+; compared with control solution; FIG. 6
Experimental: Multiple identical protein solutions were arranged in two-dimensional arrays of reservoirs which were incubated at different temperatures. These samples were alternatively illuminated with UV light and monochromatic red light. The fluorescence emitted and the light scattered at 90° were measured from the top of the arrangement. The fluorescence emitted and the light scattered intensity data were collected at intervals of time of incubation for all the temperatures simultaneously. In another example, the protein was incubated in 5% ethanol; 10% glycerol, AND^+ or a control solution and the extent of unfolding was measured at 55° C. A plots of fluorescence at the given temperature versus time was automatically built for all the samples, and the rate of unfolding ku was obtained from the fitted exponential grow portion of the curves for the proteins jumped to 55° C.

[1] = system: refolded Gaf domain of PDE10; assay: thermal aggregation (light scattering) of refolded protein, temperature of aggregation (Tag) with ligands; assay type: binding; conditions: refolded Gaf domain of PDE10 in presence of ligand; light scattering versus temperature; FIG. 10
Experimental: The fluorescence emitted and the light scattered at 90° were measured from the top of the arrangement. The fluorescence emitted and the light scattered intensity data were collected at intervals of time of incubation for all the temperatures simultaneously.

| Compound | effect on the stability of the protein (unfolding, ku) (the protein) | change of temperature of aggregation (Tag) [1] |
| --- | --- | --- |
| NC(=O)c1ccc[n+]([C@@H]2O[C@H](COP(=O)([O-])OP(=O)(O)OC[C@H]3O[C@@H](n4cnc5c(N)ncnc54)[C@H](O)[C@@H]3O)[C@@H](O)[C@H]2O)c1 [AND^+] | strongest stabilizing effect | – |
| OCC(O)CO [Glycerol, glycerol] | stabilizing effect | – |
| Nc1nc2c(ncn2[C@@H]2O[C@@H]3COP(=O)(O)O[C@H]3[C@H]2O)c(=O)[nH]1 [cGMP] | – | increased the Tag |
| CCO [ethanol] | destabilizing effect or no effect at all | – |
